Some test systems named below: CAKI-1 renal; CCRF-CEM leukemia; HCC-2998 colon; KM12 colon; NCI-H23 lung; OVCAR-3 ovarian; RXF 393 renal; SF-295 CNS; SN12C renal; UACC-62 melanoma.
Assay in all cases: NCI-60 cell line screen, 48 h

SMILES strings stand for the structures. Several values for one entry are separate records, joined by “and”; a condition that tells them apart may be missing. Identical values can stand only once.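 Where inhibition never reached the appropriate level, the endpoint shown equals the highest concentration tested. Otherwise, values were interpolated linearly from a five-concentration, 48-hour dose response in 96-well plates. GI50 is the concentration that inhibits growth by half. Definition used: TGI = concentration required for complete inhibition of growth.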

Among the data in PubChem BioAssay (NCI) are TGI and GI50 values, retold here.

Consider `Cc1c(C(=O)C/C(=N/NC(=O)CC#N)C(N)=O)[n+](=O)c2ccccc2n1[O-]`, for which the TGI was over 100 µM in the assay with CAKI-1 renal; over 100 µM with CCRF-CEM leukemia; over 100 µM in the assay on HCC-2998 colon; over 100 µM in the assay with KM12 colon; over 100 µM with NCI-H23 lung; 61.8 µM in the assay with OVCAR-3 ovarian. For the same molecule, the TGI with RXF 393 renal is over 100 µM; with SF-295 CNS, over 100 µM; with SN12C renal, 97.7 µM; in the assay on UACC-62 melanoma, over 100 µM.

With `CCOC(=O)C1C(=O)C(=O)N2CCc3c([nH]c4ccccc34)C12` (configuration not stated), the TGI with CAKI-1 renal, in the assay with CCRF-CEM leukemia, in the assay with HCC-2998 colon, in the assay with KM12 colon, with NCI-H23 lung and in the assay with OVCAR-3 ovarian was over 100 µM in each case. Moreover, the TGI with RXF 393 renal, in the assay on SF-295 CNS, in the assay with SN12C renal and in the assay on UACC-62 melanoma was over 100 µM each time.

Consider `COc1cc(/C=C/C(=O)c2c(-c3ccc(Cl)cc3)nc3sc(C)nn23)cc(OC)c1OC`, for which the GI50 in the assay on CAKI-1 renal was 54 µM; in the assay on CCRF-CEM leukemia it was 3.92 µM; in the assay on HCC-2998 colon it was over 100 µM; with KM12 colon it was 21.6 µM; in the assay with NCI-H23 lung, 24.8 µM; in the assay with OVCAR-3 ovarian it was 35.7 µM. The GI50 in the assay on RXF 393 renal is 17.3 µM; in the assay with SF-295 CNS it was 30 µM; in the assay with SN12C renal, 53.9 µM; in the assay on UACC-62 melanoma it was 5.15 µM. In addition, the TGI in the assay with CAKI-1 renal was over 100 µM; in the assay on CCRF-CEM leukemia, 87.7 µM; in the assay with HCC-2998 colon, over 100 µM; in the assay on KM12 colon it was over 100 µM; in the assay on NCI-H23 lung, over 100 µM; with OVCAR-3 ovarian, over 100 µM. Further, the TGI with RXF 393 renal, in the assay on SF-295 CNS, in the assay on SN12C renal and in the assay on UACC-62 melanoma was over 100 µM in each case.

As for `Cc1c(N)nc(C2CC(=O)N2CC(N)C(N)=O)nc1C(=O)NC(C(=O)NC(C)C(O)C(C)C(=O)NC(C(=O)NCCc1nc(-c2nc(C(=O)NCCNCC(C)O)cs2)cs1)C(C)O)C(OC1OC(CO)C(O)C(O)C1OC1OC(CO)C(O)C(OC(N)=O)C1O)c1cnc[nH]1` (configuration not stated), the GI50 is 0.0234 µM in the assay on CAKI-1 renal; 12.6 µM in the assay on CCRF-CEM leukemia; over 50 µM in the assay with KM12 colon; 1.06 µM with NCI-H23 lung; 1.63 µM in the assay with OVCAR-3 ovarian; 0.46 µM in the assay with SF-295 CNS. The GI50 is 5.33 µM in the assay with SN12C renal and 0.756 µM in the assay with UACC-62 melanoma. For the same molecule, the TGI in the assay on CCRF-CEM leukemia was 50 µM and > 33 µM; in the assay with HCC-2998 colon, over 100 µM; in the assay with KM12 colon, over 100 µM; in the assay with NCI-H23 lung, 16.3 µM and 8.81 µM; with OVCAR-3 ovarian, 20.6 µM and > 55 µM; in the assay on RXF 393 renal, 0.425 µM. Moreover, the TGI with SF-295 CNS was 12.1 µM and 15.7 µM; in the assay on SN12C renal, 36.4 µM and 27 µM; with UACC-62 melanoma it was 6.43 µM and 7.31 µM.

With `O=C1OC(c2ccccc2)=N/C1=C\c1ccc(N(CCCl)CCCl)cc1`, the TGI in the assay on CAKI-1 renal, in the assay on CCRF-CEM leukemia, in the assay with HCC-2998 colon, with KM12 colon, in the assay on NCI-H23 lung and with OVCAR-3 ovarian was over 100 µM each time. Besides, the TGI with RXF 393 renal, in the assay with SF-295 CNS, in the assay with SN12C renal and in the assay with UACC-62 melanoma was over 100 µM in each case.

For `c1csc(-c2[nH]nc3c2CCc2ccccc2-3)c1`, the GI50 is 19.6 µM in the assay on CAKI-1 renal; 21.7 µM with CCRF-CEM leukemia; 1.15 µM with HCC-2998 colon; 0.406 µM in the assay with KM12 colon; 16.1 µM in the assay with NCI-H23 lung; 3.35 µM in the assay on OVCAR-3 ovarian. Moreover, the GI50 in the assay on RXF 393 renal is 16.9 µM; in the assay with SF-295 CNS, 16.4 µM; in the assay on SN12C renal, 14.8 µM; in the assay on UACC-62 melanoma, 13.6 µM. Besides, the TGI came to 58.1 µM with CAKI-1 renal; 73.3 µM in the assay with CCRF-CEM leukemia; 28.6 µM with HCC-2998 colon; 14.9 µM in the assay with KM12 colon; 42.9 µM in the assay with NCI-H23 lung; 19.7 µM in the assay with OVCAR-3 ovarian. Further, the TGI in the assay on RXF 393 renal was found to be 37.4 µM; in the assay on SF-295 CNS it was 38.7 µM; in the assay on SN12C renal it was 30.2 µM; with UACC-62 melanoma it was 27.8 µM.

On to `CCOC(=O)/C(=C/c1ccc[nH]1)P(=O)(OCC)OCC`, for which the TGI in the assay on CAKI-1 renal, in the assay on CCRF-CEM leukemia, in the assay on HCC-2998 colon, in the assay on KM12 colon, in the assay on NCI-H23 lung and with OVCAR-3 ovarian was over 100 µM each time. The TGI with RXF 393 renal, in the assay on SF-295 CNS, with SN12C renal and in the assay on UACC-62 melanoma was over 100 µM in each case.

As to `O=C1C(=O)c2c(ccc3ccccc23)-c2ccccc21`, the GI50 is 2.7 µM in the assay with CAKI-1 renal; 2.17 µM in the assay with CCRF-CEM leukemia; 2.65 µM in the assay on HCC-2998 colon; 1.6 µM in the assay with KM12 colon; 1.76 µM in the assay with NCI-H23 lung; 0.25 µM in the assay on OVCAR-3 ovarian. Further, the GI50 in the assay with RXF 393 renal is 1.68 µM; in the assay with SF-295 CNS, 1.92 µM; in the assay on SN12C renal, 1.6 µM; in the assay with UACC-62 melanoma, 1.57 µM. In addition, the TGI is over 100 µM in the assay on CAKI-1 renal; over 100 µM in the assay on CCRF-CEM leukemia; 7.75 µM with HCC-2998 colon; 2.99 µM with KM12 colon; 4.63 µM in the assay on NCI-H23 lung; 0.713 µM in the assay on OVCAR-3 ovarian. Also, the TGI with RXF 393 renal was determined as 3.22 µM; in the assay with SF-295 CNS it was 4.6 µM; in the assay with SN12C renal it was 3.31 µM; in the assay with UACC-62 melanoma, 3.38 µM.

`CC(=O)OC1CCC2(C)C(=CCC3C4CC(CN5CC5)C(=O)C4(C)CCC32)C1` (configuration not stated): the GI50 in the assay on CAKI-1 renal is 2.21 µM; with CCRF-CEM leukemia it was 2.79 µM; in the assay with HCC-2998 colon, 14 µM; in the assay on KM12 colon, 3.11 µM; with NCI-H23 lung, 14 µM; with OVCAR-3 ovarian, 4.63 µM. For the same molecule, the GI50 in the assay with RXF 393 renal is 9.77 µM; with SF-295 CNS, 22 µM; in the assay with SN12C renal, 15.4 µM; in the assay on UACC-62 melanoma it was 11.7 µM. Also, the TGI in the assay with CAKI-1 renal turned out to be 6.02 µM; with CCRF-CEM leukemia, 11.4 µM; in the assay on HCC-2998 colon, 30.4 µM; in the assay on KM12 colon, 11 µM; in the assay with NCI-H23 lung, 30 µM; with OVCAR-3 ovarian, 14.8 µM. Also, the TGI with RXF 393 renal was 24.1 µM; with SF-295 CNS, over 55.4 µM; in the assay with SN12C renal, 30.4 µM; in the assay on UACC-62 melanoma, 24.6 µM.

With `Brc1ccc2c(c1)-c1ccccc1C1=NCCN12`, the GI50 with CAKI-1 renal was 1.52 µM; in the assay on CCRF-CEM leukemia, 1.74 µM; in the assay on HCC-2998 colon it was 1.3 µM; in the assay on KM12 colon, 1.02 µM; with NCI-H23 lung it was 1.8 µM; in the assay on OVCAR-3 ovarian, 2.08 µM. In addition, the GI50 is 1.29 µM with RXF 393 renal, 0.984 µM with SF-295 CNS, 1.13 µM with SN12C renal and 1.69 µM in the assay with UACC-62 melanoma. Also, the TGI with CAKI-1 renal was 7.92 µM; in the assay with CCRF-CEM leukemia, 4.93 µM; in the assay on HCC-2998 colon it was 8.49 µM; in the assay with KM12 colon, 11.3 µM; in the assay with NCI-H23 lung, 11.3 µM; in the assay on OVCAR-3 ovarian, 8.04 µM. In addition, the TGI with RXF 393 renal was 3.23 µM; with SF-295 CNS it was 4 µM; in the assay with SN12C renal it was 13 µM; in the assay with UACC-62 melanoma, 3.24 µM.

As to `Cc1cccc(Cc2cnc(NC(=O)CCCOc3ccc(Cl)cc3)s2)c1`, the GI50 is 3.68 µM with CAKI-1 renal; 3.68 µM with CCRF-CEM leukemia; 9.46 µM with HCC-2998 colon; 4.53 µM with KM12 colon; 28 µM with NCI-H23 lung; 3.4 µM with OVCAR-3 ovarian. For the same molecule, the GI50 was 9.58 µM with RXF 393 renal, 3.89 µM in the assay on SF-295 CNS, 5.26 µM with SN12C renal and 9.45 µM in the assay on UACC-62 melanoma. Moreover, the TGI in the assay with CAKI-1 renal, in the assay on CCRF-CEM leukemia, with HCC-2998 colon, in the assay on KM12 colon, in the assay on NCI-H23 lung and with OVCAR-3 ovarian was over 100 µM throughout. The TGI with RXF 393 renal, in the assay on SF-295 CNS, with SN12C renal and in the assay on UACC-62 melanoma was over 100 µM in each case.

`COc1cccc2c(Nc3ccc(C(=O)NCCN4CCNCC4)cc3)cc(-c3ccccc3)nc12`: the GI50 with CAKI-1 renal was over 100 µM; in the assay with CCRF-CEM leukemia, 30.1 µM; with HCC-2998 colon, 49.2 µM; in the assay on KM12 colon, 30.8 µM; with NCI-H23 lung it was over 100 µM; with OVCAR-3 ovarian, over 100 µM. For the same molecule, the GI50 is over 100 µM with RXF 393 renal, 33.1 µM in the assay on SF-295 CNS, 50.7 µM with SN12C renal and 65.6 µM in the assay with UACC-62 melanoma. For the same molecule, the TGI with CAKI-1 renal is over 100 µM; with CCRF-CEM leukemia, 91.7 µM; in the assay on HCC-2998 colon, over 100 µM; with KM12 colon, over 100 µM; in the assay with NCI-H23 lung, over 100 µM; in the assay with OVCAR-3 ovarian, over 100 µM. Besides, the TGI in the assay on RXF 393 renal, in the assay on SF-295 CNS, in the assay with SN12C renal and with UACC-62 melanoma was over 100 µM each time.
